Results from patent US20190185479A1, “BICYCLIC NITROGENATED HETEROCYCLIC COMPOUND” (MITSUBISHI TANABE PHARMA CORPORATION, priority 2016, published 2019).

Experiments:
Format in all cases: biochemical
Human PDE7B (hPDE7B) = biological target: T1, Human PDE7B (hPDE7B) (Homo sapiens, UniProt Q9NP56); test: Measurement of PDE7 inhibitory activity (Experimental Example 1; residual cAMP, LANCE Ultra cAMP TR-FRET); conditions: cAMP 3 nmol/L, room temperature 60 minutes
T1 construct: made in house; host or cells: COS-7 cells
T1 sequence (Q9NP56 whole entry): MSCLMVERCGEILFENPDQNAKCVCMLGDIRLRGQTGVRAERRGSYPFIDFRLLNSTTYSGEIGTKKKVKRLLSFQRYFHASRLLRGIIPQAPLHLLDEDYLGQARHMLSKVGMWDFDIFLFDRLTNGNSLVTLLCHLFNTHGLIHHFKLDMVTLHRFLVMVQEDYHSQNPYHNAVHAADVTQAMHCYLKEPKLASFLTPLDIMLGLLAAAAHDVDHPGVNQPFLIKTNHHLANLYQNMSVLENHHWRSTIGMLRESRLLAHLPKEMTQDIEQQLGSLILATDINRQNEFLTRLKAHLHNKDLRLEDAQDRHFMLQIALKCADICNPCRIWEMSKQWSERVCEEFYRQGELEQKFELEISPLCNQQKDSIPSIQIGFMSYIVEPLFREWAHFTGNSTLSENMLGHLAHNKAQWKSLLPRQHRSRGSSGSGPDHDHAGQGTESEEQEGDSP
Method in brief: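 hPDE7B from transfected COS-7 cells reacted with 3 nmol/L cAMP (final) and compound (2% DMSO) in 50 mmol/L Tris-HCl pH 7.5, 1 mmol/L MgCl2, 0.1% BSA, 0.5 mmol/L DTT, 60 min at room temperature. Reaction stopped with IBMX; residual cAMP measured by TR-FRET. Inhibition scaled between no-compound and no-enzyme controls.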

hPDE4D = biological target: T2, hPDE4D (Homo sapiens, UniProt Q08499); test: PDE4 inhibition assay (IC50), Experimental Example 3; conditions: for inhibition at 10 µM: at 10 μmol/L, read-out: inhibition rate (%) at prescribed concentration, PDE4; for IC50: hPDE4D, read-out: PDE inhibition assay IC50, PDE4
T2 construct: purchased SB Drug Discovery
T2 sequence (Q08499 whole entry): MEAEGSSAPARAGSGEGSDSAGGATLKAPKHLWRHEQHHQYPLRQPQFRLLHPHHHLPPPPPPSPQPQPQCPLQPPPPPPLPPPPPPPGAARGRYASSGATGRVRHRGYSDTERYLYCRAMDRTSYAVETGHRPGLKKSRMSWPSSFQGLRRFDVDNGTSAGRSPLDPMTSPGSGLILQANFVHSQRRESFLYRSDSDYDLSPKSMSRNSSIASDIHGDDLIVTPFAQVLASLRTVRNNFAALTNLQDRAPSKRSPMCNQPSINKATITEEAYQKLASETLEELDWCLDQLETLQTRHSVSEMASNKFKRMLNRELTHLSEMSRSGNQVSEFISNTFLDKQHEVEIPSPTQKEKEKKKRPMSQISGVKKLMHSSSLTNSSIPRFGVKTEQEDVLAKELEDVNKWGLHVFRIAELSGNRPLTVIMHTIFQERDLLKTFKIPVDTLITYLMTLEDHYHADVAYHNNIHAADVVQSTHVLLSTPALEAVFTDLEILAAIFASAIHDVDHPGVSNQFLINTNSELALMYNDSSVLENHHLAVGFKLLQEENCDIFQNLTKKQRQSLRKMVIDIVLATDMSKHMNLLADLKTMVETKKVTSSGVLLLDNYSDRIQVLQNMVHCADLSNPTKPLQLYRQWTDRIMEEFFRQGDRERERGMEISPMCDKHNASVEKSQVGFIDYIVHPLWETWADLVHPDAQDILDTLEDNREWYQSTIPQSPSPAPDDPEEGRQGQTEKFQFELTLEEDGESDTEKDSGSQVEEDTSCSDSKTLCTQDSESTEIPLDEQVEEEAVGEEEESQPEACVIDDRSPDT
Method: (§1) PDE7 inhibitory assay was carried out by reacting the mixture of a compound, hPDE7B, and cAMP, and measuring the residual cAMP by a detection method using LANCE (registered trademark) Ultra cAMP Detection Kit (ParkinElmer). The compound was dissolved in DMSO, and diluted so that the concentration would become 50 times of the final concentration. The hPDE7B and cAMP were diluted with an assay buffer (50 mmol/L Tris-HCl, 1 mmol/L MgCl2, 0.1% BSA, 0.5 mmol/L DTT, pH7.5) so that the hPDE7B would have an appropriate enzyme activity and the concentration of cAMP would become 6 nmol/L. To a 96 well plate were added the compound (2 μL) (DMSO final concentration: 2%), hPDE7B (48 μL), and cAMP (50 μL) (concentration at the reaction: 3 nmol/L), and the resulting mixture was reacted at room temperature for 60 minutes. The reaction solution (20 μL) was subjected to a TR-FRET method according to the protocol specified by the kit to measure the concentration of the residual cAMP. In the assay, to a tracer solution specified by the kit was added 0.5 mmol/L of 3-isobutyl-1-methylxanthine (IBMX, nonselective PDE inhibitor) in order to stop the PDE enzyme reaction after the completion of reaction until the measurement.
(§2) The prediction of PDE7 selectivity was evaluated by comparing each IC50 value of a compound against PDE4, 8, and 10 with the IC50 value of said compound against PDE7B.
(§3) hPDE4D, hPDE8B, and hPDE10A were prepared by the same method as [Method for preparing samples 2].
(§4) PDE4, 8, and 10 inhibitory assays were carried out by the same method as [Assay procedure 1].
(§5) The reaction without a compound wad defined as “0% inhibition”, the reaction without each PDE was defined as “100% inhibition”, and the calculation of IC50 value was carried out by the same method as <Method for data calculation 1>.

hPDE8B = biological target: T3, hPDE8B (Homo sapiens, UniProt O95263); test: PDE8 inhibition assay (IC50), Experimental Example 3; conditions: for IC50: hPDE8B, read-out: PDE inhibition assay IC50, PDE8; for inhibition at 1 µM: at 1 μmol/L
T3 construct: purchased SB Drug Discovery
T3 sequence (O95263 whole entry): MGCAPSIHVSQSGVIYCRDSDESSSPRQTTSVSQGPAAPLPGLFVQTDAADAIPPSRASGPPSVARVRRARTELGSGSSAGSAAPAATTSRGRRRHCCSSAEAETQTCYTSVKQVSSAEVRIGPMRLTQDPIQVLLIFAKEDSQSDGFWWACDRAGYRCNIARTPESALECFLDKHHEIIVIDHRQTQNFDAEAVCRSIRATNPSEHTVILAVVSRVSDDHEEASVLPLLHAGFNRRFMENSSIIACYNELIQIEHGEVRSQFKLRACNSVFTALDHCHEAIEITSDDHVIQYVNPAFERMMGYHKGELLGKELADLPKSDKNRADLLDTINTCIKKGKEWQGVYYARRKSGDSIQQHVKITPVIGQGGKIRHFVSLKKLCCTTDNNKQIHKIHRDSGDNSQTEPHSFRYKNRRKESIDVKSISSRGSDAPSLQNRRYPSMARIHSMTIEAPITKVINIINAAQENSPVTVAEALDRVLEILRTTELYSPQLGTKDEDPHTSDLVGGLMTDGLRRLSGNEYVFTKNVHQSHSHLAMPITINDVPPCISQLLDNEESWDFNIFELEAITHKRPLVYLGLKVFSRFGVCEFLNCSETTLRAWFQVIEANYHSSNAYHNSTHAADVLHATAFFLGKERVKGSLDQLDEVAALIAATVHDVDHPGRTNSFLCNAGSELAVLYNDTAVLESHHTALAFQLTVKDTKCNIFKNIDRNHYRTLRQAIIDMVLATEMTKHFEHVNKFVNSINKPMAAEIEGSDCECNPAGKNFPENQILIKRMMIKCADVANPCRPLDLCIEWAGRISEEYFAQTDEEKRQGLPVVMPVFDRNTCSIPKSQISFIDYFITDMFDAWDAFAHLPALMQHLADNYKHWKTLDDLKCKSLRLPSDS
Method: as §1, §2, §3, §4, §5

hPDE10A = hPDE10A (Homo sapiens, UniProt Q9Y233); test: PDE10 inhibition assay (IC50), Experimental Example 3; conditions: for IC50: hPDE10A, read-out: PDE inhibition assay IC50, PDE10; for inhibition at 10 µM: at 10 μmol/L
hPDE10A, sequence (Q9Y233 290-1055 limits assumed): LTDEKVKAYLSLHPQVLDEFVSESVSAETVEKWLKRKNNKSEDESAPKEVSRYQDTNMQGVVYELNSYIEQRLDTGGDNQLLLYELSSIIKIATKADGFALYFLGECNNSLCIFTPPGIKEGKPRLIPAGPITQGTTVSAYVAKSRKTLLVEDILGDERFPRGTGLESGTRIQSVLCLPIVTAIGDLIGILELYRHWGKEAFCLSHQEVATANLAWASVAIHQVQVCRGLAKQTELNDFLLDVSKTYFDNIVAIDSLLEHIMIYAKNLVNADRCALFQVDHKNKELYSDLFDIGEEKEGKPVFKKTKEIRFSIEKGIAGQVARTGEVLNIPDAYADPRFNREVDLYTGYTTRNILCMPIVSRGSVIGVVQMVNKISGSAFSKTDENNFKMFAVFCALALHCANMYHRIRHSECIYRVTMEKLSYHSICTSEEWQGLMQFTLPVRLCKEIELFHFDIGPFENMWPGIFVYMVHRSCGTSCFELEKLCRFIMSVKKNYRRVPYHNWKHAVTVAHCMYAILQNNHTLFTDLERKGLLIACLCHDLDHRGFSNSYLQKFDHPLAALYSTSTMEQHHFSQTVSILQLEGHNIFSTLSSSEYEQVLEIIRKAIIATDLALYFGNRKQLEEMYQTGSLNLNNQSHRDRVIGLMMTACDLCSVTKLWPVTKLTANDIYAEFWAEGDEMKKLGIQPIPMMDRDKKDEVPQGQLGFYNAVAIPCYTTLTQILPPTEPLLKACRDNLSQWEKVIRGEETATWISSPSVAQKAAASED
Method: as §1, §2, §3, §4, §5

[1] = read-out: inhibition rate (%) at prescribed concentration, PDE10
[2] = read-out: inhibition rate (%) at prescribed concentration, PDE8

Compound	IC50 (Human PDE7B (hPDE7B)) [nM]	IC50 (hPDE8B) [nM]	IC50 (hPDE10A) [nM]	IC50 (hPDE4D) [nM]	other results
Cc1cnc(N)c2nnc(C3CCCCC3)n12 [Example 171, 3-cyclohexyl-5-methyl[1,2,4]triazolo[4,3-a]pyrazin-8-amine]	70	2950	7200	–	inhibition at 10 µM (hPDE4D): 48%
Nc1nccn2c(C3CCC4CC4C3)nnc12 (single isomer, unassigned) [Example 218, 3-(bicyclo[4.1.0]hept-3-yl) [1,2,4]triazolo[4,3-a]pyrazin-8-amine]	80	2600	3000	4100	–
CC1CCN(c2nnc3c(N)nccn23)CC1C (single isomer, unassigned) [Example 230, 3-(3,4-dimethylpiperidin-1-yl) [1,2,4]triazolo[4,3-a]pyrazin-8-amine]	80	2900	19600	4000	–
Nc1ncnn2c(C3CCCCC3)nnc12 [Example 68, 3-cyclohexyl[1,2,4]triazolo[3,4-f][1,2,4]triazin-8-amine]	20	500	–	4130	inhibition at 10 µM (hPDE10A; [1]): 34%
Nc1nccn2c(N3CCCC(Cc4ccccc4)C3)nnc12 (centres unmarked) [Example 48]	70	–	–	1300	inhibition at 1 µM (hPDE8B; [2]): 79%; inhibition at 1 µM (hPDE10A; at 1 μmol/L, read-out: inhibition rate (%) at prescribed concentration, PDE10): 52%
CCc1cnc(N)c2nnc(N3CCCC(C)(C)C3)n12 [Example 42, 3-(3,3-dimethylpiperidin-1-yl)-5-ethyl[1,2,4]triazolo[4,3-a]pyrazin-8-amine]	< 10	1700	5200	3000	–
Nc1nccn2c([C@H]3CCCC(F)(F)C3)nnc12 [Example 212, 3-[(1S)-3,3-difluorocyclohexyl][1,2,4]triazolo[4,3-a]pyrazin-8-amine]	40	6070	15600	15900	–
CC1CCC(C(F)(F)F)CC1c1nnc2c(N)nccn12 (single isomer, unassigned) [Example 174, 3-[2-methyl-5-(trifluoromethyl)cyclohexyl][1,2,4]triazolo[4,3-a]pyrazin-8-amine]	3	6800	1300	6000	–
Nc1nccn2c(N3CCCC(C(F)(F)F)C3)nnc12 (centres unmarked) [Example 46]	80	7700	34500	56900	–
C[C@@H]1C[C@H](C)CN(c2nnc3c(N)nccn23)C1 [Example 52]	80	1160	6800	8190	–
Nc1nccn2c(C3CC4(CC4)C3)nnc12 [Example 20]	80	1580	–	–	inhibition at 10 µM (hPDE4D): 40%; inhibition at 10 µM (hPDE10A; [1]): 22%
CC1CCC(F)(F)CC1c1nnc2c(N)ncnn12 (single isomer, unassigned) [Example 246, 3-(cis-5,5-difluoro-2-methylcyclohexyl) [1,2,4]triazolo[3,4-f][1,2,4]triazin-8-amine]	3	4400	–	2300	–
CC1(n2nnc3c(N)ncnc32)CCCCC1 [Example 7]	560	–	–	–	inhibition at 10 µM (hPDE8B; at 10 μmol/L, read-out: inhibition rate (%) at prescribed concentration, PDE8): 50%
C=C(C)[C@@H]1CC[C@@H](C)[C@@H](n2nnc3c(N)ncnc32)C1 [Example 106, 3-[(1S,2R,5R)-2-methyl-5-(prop-1-en-2-yl)cyclohexyl]-3H-[1,2,3]triazolo[4,5-d]pyrimidin-7-amine]	300	4380	–	–	–
Cn1nc(C2CCCCC2)c2ncnc(N)c21 [Example 187, 3-cyclohexyl-1-methyl-1H-pyrazolo[4,3-d]pyrimidin-7-amine]	580	–	2720	–	inhibition at 10 µM (hPDE4D): 38%
Nc1ncnc2c1nnn2C1CCCC(COCc2ccccc2)C1 (centres unmarked) [Example 126]	280	2650	–	–	–
Nc1ncnc2c1nnn2[C@H]1CCCN(c2ccccc2)C1 [Example 137, 3-[(3S)-1-phenylpiperidin-3-yl]-3H-[1,2,3]triazolo[4,5-d]pyrimidin-7-amine]	190	–	–	–	inhibition at 0.1 µM (hPDE8B; at 0.1 μmol/L, read-out: inhibition rate (%) at prescribed concentration, PDE8): 58%
CSc1nc(N)c2nnn(C3CCCCC3)c2n1 [Example 5, 3-cyclohexyl-5-(methylsulfanyl)-3H-[1,2,3]triazolo[4,5-d]pyrimidin-7-amine]	30	–	2760	190	–
CC(C)(C)OC(=O)N1CCC[C@H](n2nnc3c(N)ncnc32)C1 [Example 13, Tert-butyl (3S)-3-(7-amino-3H-[1,2,3]triazolo[4,5-d]pyrimidin-3-yl)piperidine-1-carboxylate]	160	220	–	–	–

Compound	IC50 (Human PDE7B (hPDE7B)) [nM]	IC50 (hPDE8B) [nM]	IC50 (hPDE10A) [nM]	IC50 (hPDE4D) [nM]	other results
COc1nc(N)c2nnn(C3CCCCC3)c2n1 [Example 92, 3-cyclohexyl-5-methoxy-3H-[1,2,3]triazolo[4,5-d]pyrimidin-7-amine]	< 10	–	2970	640	–
Nc1ncnc2c1nnn2C1CCCC(CF)C1 (centres unmarked) [Example 118]	80	–	–	4250	inhibition at 1 µM (hPDE8B; [2]): 55%
Nc1ncnc2c1ncn2C1CCCCC1 [Example 182]	410	–	470	3420	–
Nc1ncnc2c1c(C(F)(F)F)nn2C1CCCCC1 [Example 185]	560	–	360	1840	–
CC[C@H]1CC[C@H](n2nnc3c(N)ncnc32)CC1 [Example 100]	120	1800	–	–	–
Nc1ncnc2c1nnn2[C@H]1CCCC(F)(F)C1 [Example 89]	160	8600	–	–	inhibition at 10 µM (hPDE10A; [1]): 17%
Nc1ncnc2c(C3CCCCC3)onc12 [Example 253, 3-(cyclohexyl)-isoxazolo[4,3-d]pyrimidin-8-amine]	610	3810	–	7380	–
Nc1ncnc2c1nnn2C1CCCC(COc2ccccc2)C1 (centres unmarked) [Example 125]	210	1110	–	–	–
Nc1ncnc2c1nnn2[C@@H]1CCCC(F)(F)C1 [Example 88]	840	–	–	–	–
Nc1ncnc2c1nnn2C1CCCCC1(F)F (single isomer, unassigned) [Example 114, 3-(2,2-difluorocyclohexyl)-3H-[1,2,3]triazolo[4,5-d]pyrimidin-7-amine]	190	–	–	–	–
Nc1nccn2c(-c3ccccc3)nnc12 [Example 170]	270	–	–	–	–
CC1CCC(C)N(c2nnc3c(N)nccn23)C1 (racemic) [Example 58, 3-(2,5-dimethylpiperidin-1-yl) [1,2,4]triazolo[4,3-a]pyrazin-8-amine]	20	–	–	–	–
CC1CCCC(n2nnc3c(N)ncnc32)C1 (racemic) [Example 94, 3-(trans-3-methylcyclohexyl)-3H-[1,2,3]triazolo[4,5-d]pyrimidin-7-amine]	60	–	–	–	–
CC1CCC(C(F)(F)F)CC1c1nnc2c(N)nccn12 (racemic) [Example 151, 3-[2-methyl-5-(trifluoromethyl)cyclohexyl][1,2,4]triazolo[4,3-a]pyrazin-8-amine]	10	–	–	–	–
Nc1ncnc2c1nnn2[C@H]1CC[C@H](C(F)(F)F)CC1 [Example 103]	450	–	–	–	–
Nc1ncnc2c1nnn2-c1cccc(OCc2ccccc2)c1 [Example 139, 3-[3-(benzyloxy)phenyl]-3H-[1,2,3]triazolo[4,5-d]pyrimidin-7-amine]	90	–	–	–	–
CC1CCC(C)N(c2nnc3c(N)ncc(C#N)n23)C1 (racemic) [Example 60, 8-amino-3-(2,5-dimethylpiperidin-1-yl) [1,2,4]triazolo[4,3-a]pyrazine-5-carbonitrile]	< 10	–	–	–	–
CC1(C)CCCC(c2nnc3c(N)nccn23)C1 (racemic) [Example 144, 3-(3,3-dimethylcyclohexyl) [1,2,4]triazolo[4,3-a]pyrazin-8-amine]	10	–	–	–	–
